Reference: PubChem BioAssay (NCI)
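Tested at 5 concentrations; 48 h exposure; 96-well plates; endpoints linearly interpolated, else capped at highest concentration. GI50 is the concentration that inhibits growth by half. At the TGI there is no net growth.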

Experiments:
Experiment in all cases: growth of human tumour cells (NCI), 48 h
KM12 colon = test system: KM12 colon
HT29 colon = test system: HT29 colon
CCRF-CEM leukemia = test system: CCRF-CEM leukemia
SNB-75 CNS = test system: SNB-75 CNS
OVCAR-8 ovarian = test system: OVCAR-8 ovarian
HOP-92 NSCLC = test system: HOP-92 NSCLC
T-47D breast = test system: T-47D breast
A549 NSCLC = test system: A549 NSCLC
HOP-62 NSCLC = test system: HOP-62 NSCLC
SNB-19 CNS = test system: SNB-19 CNS

C=CCC(N[C@@H](CO)c1ccccc1)c1cn(Cc2ccccc2Cl)c(=O)n(Cc2ccccc2Cl)c1=O (stereo not given in full)
GI50 (KM12 colon): > 100 µM
TGI (KM12 colon): > 100 µM
GI50 (HT29 colon): > 100 µM
TGI (HT29 colon): > 100 µM
GI50 (CCRF-CEM leukemia): > 100 µM
TGI (CCRF-CEM leukemia): > 100 µM
GI50 (SNB-75 CNS): 79.3 µM
TGI (SNB-75 CNS): > 100 µM
GI50 (OVCAR-8 ovarian): > 100 µM
TGI (OVCAR-8 ovarian): > 100 µM
GI50 (HOP-92 NSCLC): > 100 µM
TGI (HOP-92 NSCLC): > 100 µM
GI50 (T-47D breast): > 100 µM
TGI (T-47D breast): > 100 µM
GI50 (A549 NSCLC): > 100 µM
TGI (A549 NSCLC): > 100 µM
GI50 (HOP-62 NSCLC): > 100 µM
TGI (HOP-62 NSCLC): > 100 µM
GI50 (SNB-19 CNS): > 100 µM
TGI (SNB-19 CNS): > 100 µM

O=C1/C(=C\c2ccc(F)cc2)CN(C(=O)c2ccccc2)C/C1=C\c1ccc(F)cc1
GI50 (HT29 colon): 1.67 µM
TGI (HT29 colon): 4.34 µM
GI50 (CCRF-CEM leukemia): 1.05 µM
TGI (CCRF-CEM leukemia): > 100 µM
GI50 (SNB-75 CNS): 3.57 µM
TGI (SNB-75 CNS): 42.6 µM
GI50 (OVCAR-8 ovarian): 2.82 µM
TGI (OVCAR-8 ovarian): 17.5 µM
GI50 (HOP-92 NSCLC): 1.48 µM
TGI (HOP-92 NSCLC): 9.1 µM
GI50 (T-47D breast): 6.22 µM
TGI (T-47D breast): 71.4 µM
GI50 (A549 NSCLC): 4.92 µM
TGI (A549 NSCLC): 71.9 µM
GI50 (HOP-62 NSCLC): 3.07 µM
TGI (HOP-62 NSCLC): 8.5 µM
GI50 (SNB-19 CNS): 5.05 µM
TGI (SNB-19 CNS): 20.8 µM

CC(C)(C)N1CCC1CN (stereo not given)
GI50 (KM12 colon): > 100 µM
TGI (KM12 colon): > 100 µM
GI50 (HT29 colon): > 100 µM
TGI (HT29 colon): > 100 µM
GI50 (CCRF-CEM leukemia): > 100 µM
TGI (CCRF-CEM leukemia): > 100 µM
GI50 (SNB-75 CNS): > 100 µM
TGI (SNB-75 CNS): > 100 µM
GI50 (OVCAR-8 ovarian): > 100 µM
TGI (OVCAR-8 ovarian): > 100 µM
GI50 (HOP-92 NSCLC): > 100 µM
TGI (HOP-92 NSCLC): > 100 µM
GI50 (T-47D breast): > 100 µM
TGI (T-47D breast): > 100 µM
GI50 (A549 NSCLC): > 100 µM
TGI (A549 NSCLC): > 100 µM
GI50 (HOP-62 NSCLC): > 100 µM
TGI (HOP-62 NSCLC): > 100 µM
GI50 (SNB-19 CNS): > 100 µM
TGI (SNB-19 CNS): > 100 µM

CCOC(=O)c1ccc(Nc2sc(C(=O)c3ccc(Br)cc3)c(N)c2C#N)cc1
GI50 (KM12 colon): 0.775 µM
TGI (KM12 colon): > 100 µM
GI50 (HT29 colon): 0.447 µM
TGI (HT29 colon): > 100 µM
GI50 (CCRF-CEM leukemia): 1.43 µM
TGI (CCRF-CEM leukemia): > 100 µM
GI50 (SNB-75 CNS): 0.496 µM
TGI (SNB-75 CNS): 7.61 µM
GI50 (OVCAR-8 ovarian): 6.91 µM
TGI (OVCAR-8 ovarian): > 100 µM
GI50 (HOP-92 NSCLC): 0.884 µM
TGI (HOP-92 NSCLC): > 100 µM
GI50 (T-47D breast): 2.85 µM
TGI (T-47D breast): > 100 µM
GI50 (A549 NSCLC): 1.06 µM
TGI (A549 NSCLC): > 100 µM
GI50 (HOP-62 NSCLC): 1.56 µM
TGI (HOP-62 NSCLC): > 100 µM
GI50 (SNB-19 CNS): 7.18 µM
TGI (SNB-19 CNS): > 100 µM

CN(C)c1ccc(/C=C/c2ccnc3c(O)cccc23)cc1
GI50 (KM12 colon): 0.399 µM
TGI (KM12 colon): > 100 µM
GI50 (HT29 colon): 11.7 µM
TGI (HT29 colon): > 100 µM
GI50 (CCRF-CEM leukemia): 0.333 µM
TGI (CCRF-CEM leukemia): > 100 µM
GI50 (SNB-75 CNS): 0.372 µM
TGI (SNB-75 CNS): 36.6 µM
GI50 (OVCAR-8 ovarian): 0.352 µM
TGI (OVCAR-8 ovarian): > 100 µM
GI50 (HOP-92 NSCLC): 0.211 µM
GI50 (T-47D breast): 0.375 µM
TGI (T-47D breast): > 100 µM
GI50 (A549 NSCLC): 0.376 µM
TGI (A549 NSCLC): > 100 µM
GI50 (HOP-62 NSCLC): 0.469 µM
TGI (HOP-62 NSCLC): > 58.9 µM
GI50 (SNB-19 CNS): 0.395 µM
TGI (SNB-19 CNS): > 100 µM

COc1ccc(C(=O)Nc2ncc(Cc3cccc(Cl)c3)s2)cc1OC
GI50 (KM12 colon): 0.0547 µM
TGI (KM12 colon): > 100 µM
GI50 (HT29 colon): 0.148 µM
TGI (HT29 colon): > 100 µM
GI50 (CCRF-CEM leukemia): 0.626 µM
TGI (CCRF-CEM leukemia): > 100 µM
GI50 (SNB-75 CNS): 0.405 µM
GI50 (OVCAR-8 ovarian): 1.56 µM
TGI (OVCAR-8 ovarian): > 100 µM
GI50 (HOP-92 NSCLC): 1.99 µM
TGI (HOP-92 NSCLC): > 100 µM
GI50 (T-47D breast): 0.169 µM
TGI (T-47D breast): > 100 µM
GI50 (A549 NSCLC): 0.631 µM
TGI (A549 NSCLC): > 100 µM
GI50 (HOP-62 NSCLC): 0.546 µM
TGI (HOP-62 NSCLC): > 100 µM
GI50 (SNB-19 CNS): 0.689 µM
TGI (SNB-19 CNS): > 100 µM

O=C(O)/C=C/C(=O)N1Cc2cc3ccccc3nc2C1
TGI (KM12 colon): > 100 µM
TGI (HT29 colon): > 100 µM
TGI (SNB-75 CNS): > 100 µM
TGI (OVCAR-8 ovarian): > 100 µM
TGI (HOP-92 NSCLC): > 100 µM
TGI (T-47D breast): > 100 µM
TGI (A549 NSCLC): > 100 µM
TGI (HOP-62 NSCLC): > 100 µM
TGI (SNB-19 CNS): > 100 µM

Cc1c(O)c2ccccc2oc1=O
TGI (KM12 colon): > 100 µM
TGI (HT29 colon): > 100 µM
TGI (CCRF-CEM leukemia): > 100 µM
TGI (SNB-75 CNS): > 100 µM
TGI (OVCAR-8 ovarian): > 100 µM
TGI (HOP-92 NSCLC): > 100 µM
TGI (T-47D breast): > 100 µM
TGI (A549 NSCLC): > 100 µM
TGI (HOP-62 NSCLC): > 100 µM
TGI (SNB-19 CNS): > 100 µM

Cn1cc(C2=C(c3ccccc3[N+](=O)[O-])C(=O)NC2=O)c2ccccc21
GI50 (KM12 colon): 3.25 µM
TGI (KM12 colon): 13.3 µM
GI50 (HT29 colon): 1.81 µM
TGI (HT29 colon): 12.4 µM
GI50 (SNB-75 CNS): 0.0705 µM
TGI (SNB-75 CNS): 2.39 µM
GI50 (OVCAR-8 ovarian): 6.07 µM
TGI (OVCAR-8 ovarian): > 25 µM
GI50 (HOP-92 NSCLC): 6.08 µM
TGI (HOP-92 NSCLC): 16.6 µM
GI50 (T-47D breast): 7.52 µM
TGI (T-47D breast): 23.5 µM
GI50 (A549 NSCLC): 4.09 µM
TGI (A549 NSCLC): > 21.8 µM
GI50 (HOP-62 NSCLC): 5.35 µM
TGI (HOP-62 NSCLC): > 23.3 µM
GI50 (SNB-19 CNS): 6.88 µM
TGI (SNB-19 CNS): > 25 µM

CCOC(=O)c1ccc2c(c1)Cc1cc([N+](=O)[O-])ccc1-2
TGI (KM12 colon): > 100 µM
TGI (HT29 colon): 86.4 µM
TGI (CCRF-CEM leukemia): > 100 µM
TGI (OVCAR-8 ovarian): > 100 µM
TGI (HOP-92 NSCLC): > 100 µM
TGI (T-47D breast): > 100 µM
TGI (A549 NSCLC): > 100 µM
TGI (HOP-62 NSCLC): > 100 µM
TGI (SNB-19 CNS): > 100 µM

CC(C)N1CC2CN(Cc3ccccc3)CC(C1)C2=O
TGI (KM12 colon): > 100 µM
TGI (HT29 colon): > 100 µM
TGI (CCRF-CEM leukemia): > 100 µM
TGI (SNB-75 CNS): > 100 µM
TGI (OVCAR-8 ovarian): > 100 µM
TGI (HOP-92 NSCLC): > 100 µM
TGI (A549 NSCLC): > 100 µM
TGI (HOP-62 NSCLC): > 100 µM
TGI (SNB-19 CNS): > 100 µM

COc1ccccc1NC(=O)C1=C(C)NC(C)=C(C(=O)Nc2ccccc2OC)C1C1=CC=COC1
TGI (KM12 colon): 49.6 µM
TGI (HT29 colon): 62.7 µM
TGI (CCRF-CEM leukemia): 48.4 µM
TGI (SNB-75 CNS): > 100 µM
TGI (OVCAR-8 ovarian): 40.4 µM
TGI (HOP-92 NSCLC): 83.8 µM
TGI (A549 NSCLC): > 100 µM
TGI (HOP-62 NSCLC): > 100 µM
TGI (SNB-19 CNS): 84.2 µM

COC(=O)CCC(NC(=S)N/N=C/c1ccccn1)C(=O)OC (stereo not given)
TGI (KM12 colon): > 100 µM
TGI (HT29 colon): > 100 µM
TGI (CCRF-CEM leukemia): > 100 µM
TGI (SNB-75 CNS): > 100 µM
TGI (OVCAR-8 ovarian): > 100 µM
TGI (HOP-92 NSCLC): > 100 µM
TGI (A549 NSCLC): > 100 µM
TGI (HOP-62 NSCLC): > 100 µM
TGI (SNB-19 CNS): > 100 µM

COc1ccc2sc3cccc(NCCN(C)C)c3c(=O)c2c1
GI50 (KM12 colon): 3.72 µM
TGI (KM12 colon): 12.1 µM
GI50 (HT29 colon): 2.03 µM
TGI (HT29 colon): 4.6 µM
GI50 (CCRF-CEM leukemia): 2.43 µM
TGI (CCRF-CEM leukemia): 8.39 µM
GI50 (SNB-75 CNS): 2.9 µM
TGI (SNB-75 CNS): 12.8 µM
GI50 (OVCAR-8 ovarian): 3.3 µM
TGI (OVCAR-8 ovarian): 12.5 µM
GI50 (T-47D breast): 2.76 µM
TGI (T-47D breast): 9.78 µM
GI50 (A549 NSCLC): 2.57 µM
TGI (A549 NSCLC): 7.15 µM
GI50 (HOP-62 NSCLC): 3.57 µM
TGI (HOP-62 NSCLC): 10.7 µM
GI50 (SNB-19 CNS): 2.78 µM
TGI (SNB-19 CNS): 14.1 µM

O=c1cc(-c2ccccc2)oc2ccc(OC/C(=N/O)c3ccccc3)cc12
GI50 (KM12 colon): 1.95 µM
TGI (KM12 colon): > 50 µM
GI50 (HT29 colon): 2.02 µM
TGI (HT29 colon): > 50 µM
GI50 (CCRF-CEM leukemia): 1.51 µM
TGI (CCRF-CEM leukemia): > 50 µM
GI50 (SNB-75 CNS): 2.76 µM
TGI (SNB-75 CNS): > 50 µM
GI50 (OVCAR-8 ovarian): 3.82 µM
TGI (OVCAR-8 ovarian): > 50 µM
GI50 (HOP-92 NSCLC): 25.2 µM
TGI (HOP-92 NSCLC): > 50 µM
GI50 (A549 NSCLC): 3 µM
TGI (A549 NSCLC): > 50 µM
GI50 (HOP-62 NSCLC): 9.62 µM
TGI (HOP-62 NSCLC): > 50 µM
GI50 (SNB-19 CNS): 2.34 µM
TGI (SNB-19 CNS): 35.2 µM
